Data on 26 compounds can be found in PubChem BioAssay (NCI).

The structures appear in SMILES notation.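 Interpolation was linear, between the two tested concentrations surrounding the appropriate level; five concentrations were tested over 48 hours in 96-well plates. GI50 is the concentration that inhibits growth by half. The concentration for full growth arrest is given as TGI.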 Bounds are passed on as bounds.

The subject of the first assay is HT29 colon. Nature of the assay: NCI-60 cell line screen, 48 h.
Take `CCOC(=O)NC(=O)c1cn(CCCO)c(=O)[nH]c1=O`: the TGI is more than 100 µM.

As for `CCN1c2ccccc2C(C(SC)S(=O)(=O)c2ccc(C)cc2)c2c1[nH]c(=O)n(C)c2=O` (centres undefined), the TGI is more than 100 µM.

With `COc1ccc(S(=O)(=O)NNS(C)(=O)=O)cc1`, the TGI is more than 100 µM.

In the case of `C[C@@H]1CCC2[C@@H](C)[C@@H](OCC(CO[C@H]3OC4O[C@@]5(C)CC[C@H]6[C@H](C)CCC([C@H]3C)[C@@]46OO5)OC(=O)CCC(=O)O)OC3O[C@@]4(C)CC[C@@H]1[C@]32OO4` (some centres undefined), the GI50 is less than 0.01 µM and the TGI was more than 34.9 µM.

As to `O=C1c2cc3c(cc2-c2c1c1ccc(F)cc1c(=O)n2CCCNCCO)OCO3`, the GI50 is 0.0279 µM and the TGI came out at 0.152 µM.

`CC1(C)C2CCC(=O)C1CC2` (centres undefined) came in with a TGI of more than 100 µM.

The compound `O=C(/C=C\c1ccc(Cl)c(Cl)c1)c1ccc(Cl)cc1Cl` showed a TGI of 34.2 µM.

As for `ClCc1cccc(Cn2cnc3ncnc(Cl)c32)c1`, the GI50 was 2.89 µM and the TGI was more than 100 µM.

`CCOC(=O)C(=C=C=C(c1ccccc1)c1ccccc1)C(=O)OCC`: the TGI was determined as 41.7 µM.

As to `OCC#Cc1ccccc1C#Cc1ccccc1`, the GI50 was 23.6 µM and the TGI was 97.6 µM.

With `Cn1c2ccccc2c2cc(-c3ccccc3)c3c(c21)C(=O)c1ccccc1C3=O`, the TGI is more than 100 µM.

Take `c1ccc(COc2cccc3ccc[n+](Cc4ccccc4)c23)cc1`: the TGI is more than 100 µM.

For `CN(C)c1ccc(/C=C(\NC(=O)c2ccccc2)c2nc3ncncc3[nH]2)cc1`, the TGI was more than 100 µM.

On to `CC1=CC(O)(c2ccc(-c3ccccc3Cl)cc2)OC1=O` (centres undefined), for which the TGI is more than 100 µM.

On to `O=C(/C=C/c1ccncc1)c1cc(Cl)ccc1O`, for which the GI50 was 14.1 µM and the TGI is 29.7 µM.

For `COc1cc2c3c(n(C)c(=O)c2cc1OC)-c1cc2c(cc1/C3=C\CCCN)OCO2`, the GI50 was 4.57 µM and the TGI is more than 100 µM.

Consider `CCOC(=O)CC(=O)ON(C)C(C)=O`, for which the TGI was more than 100 µM.

For the compound `Cc1ccc(S(=O)(=O)Nc2ccccc2C(=O)c2ccc(C)c(C)c2)cc1`, the TGI was more than 100 µM.

In turn, `COC(OC)C(C)CC(=O)N(C)C` (centres undefined) gave a TGI of more than 100 µM.

Take `O=S1(=O)OCCOS(=O)(=O)C1Br`: the TGI is more than 100 µM.

On to `CC(C)=Cc1cc(C(=O)Nc2ccc(Cl)c(Cl)c2)nc(N)n1`, for which the TGI is more than 100 µM.

Consider `CCOC(=O)c1cc2nc3ccccc3c(=O)n2c2ccccc12`, for which the TGI was more than 10 µM.

The compound `CC(=O)/C(=C\c1cccc([N+](=O)[O-])c1)C(=O)Nc1ccccc1C` had a TGI of more than 100 µM.

The compound `C[Si](C)(C)C1(Sc2ccccc2)SCCCS1` had a TGI of more than 100 µM.

On to `O=C(CSc1ccc(Cl)cc1)Nc1ccc(-c2nc3ccccc3s2)c(Cl)c1`, for which the GI50 is 6.86 µM and the TGI is more than 100 µM.

With `COc1cc2c3c(n(C)c(=O)c2cc1OC)-c1cc2c(cc1/C3=C\CCN)OCO2`, the GI50 was 0.138 µM and the TGI was more than 34.8 µM.

Another assay relates to LOX IMVI melanoma. In words: NCI-60 cell line screen, 48 h.
For `CCOC(=O)NC(=O)c1cn(CCCO)c(=O)[nH]c1=O`, the TGI is more than 100 µM.

The compound `CCN1c2ccccc2C(C(SC)S(=O)(=O)c2ccc(C)cc2)c2c1[nH]c(=O)n(C)c2=O` (centres undefined) came in with a TGI of more than 100 µM.

`COc1ccc(S(=O)(=O)NNS(C)(=O)=O)cc1` displayed a TGI of more than 100 µM.

As for `C[C@@H]1CCC2[C@@H](C)[C@@H](OCC(CO[C@H]3OC4O[C@@]5(C)CC[C@H]6[C@H](C)CCC([C@H]3C)[C@@]46OO5)OC(=O)CCC(=O)O)OC3O[C@@]4(C)CC[C@@H]1[C@]32OO4` (some centres undefined), the GI50 is less than 0.01 µM and the TGI is more than 100 µM.

Consider `O=C1c2cc3c(cc2-c2c1c1ccc(F)cc1c(=O)n2CCCNCCO)OCO3`, for which the GI50 was 0.0139 µM and the TGI stood at 0.0582 µM.

`CC1(C)C2CCC(=O)C1CC2` (centres undefined): the TGI is more than 100 µM.

As to `O=C(/C=C\c1ccc(Cl)c(Cl)c1)c1ccc(Cl)cc1Cl`, the GI50 is 2.05 µM and the TGI is 18.2 µM.

Take `ClCc1cccc(Cn2cnc3ncnc(Cl)c32)c1`: the GI50 is 3.11 µM and the TGI came out at 14 µM.

With `CCOC(=O)C(=C=C=C(c1ccccc1)c1ccccc1)C(=O)OCC`, the TGI amounted to 36.6 µM.

With `OCC#Cc1ccccc1C#Cc1ccccc1`, the GI50 is 13.2 µM and the TGI is 27.6 µM.

Take `CC1=CC(O)(c2ccc(-c3ccccc3Cl)cc2)OC1=O` (centres undefined): the TGI is more than 100 µM.

Regarding `O=C(/C=C/c1ccncc1)c1cc(Cl)ccc1O`, the GI50 is 13.2 µM and the TGI stood at 29.2 µM.

On to `COc1cc2c3c(n(C)c(=O)c2cc1OC)-c1cc2c(cc1/C3=C\CCCN)OCO2`, for which the GI50 is 1.06 µM and the TGI is 2.52 µM.

In turn, `CCOC(=O)CC(=O)ON(C)C(C)=O` had a TGI of more than 100 µM.

On to `Cc1ccc(S(=O)(=O)Nc2ccccc2C(=O)c2ccc(C)c(C)c2)cc1`, for which the TGI was more than 100 µM.

`COC(OC)C(C)CC(=O)N(C)C` (centres undefined) gave a TGI of more than 100 µM.

In turn, `CC(C)=Cc1cc(C(=O)Nc2ccc(Cl)c(Cl)c2)nc(N)n1` had a TGI of more than 100 µM.

For `CCOC(=O)c1cc2nc3ccccc3c(=O)n2c2ccccc12`, the TGI was more than 10 µM.

As for `CC(=O)/C(=C\c1cccc([N+](=O)[O-])c1)C(=O)Nc1ccccc1C`, the TGI was more than 100 µM.

With `C[Si](C)(C)C1(Sc2ccccc2)SCCCS1`, the TGI was more than 100 µM.

With `O=C(CSc1ccc(Cl)cc1)Nc1ccc(-c2nc3ccccc3s2)c(Cl)c1`, the GI50 is 5.07 µM and the TGI was more than 100 µM.

Consider `COc1cc2c3c(n(C)c(=O)c2cc1OC)-c1cc2c(cc1/C3=C\CCN)OCO2`, for which the GI50 is less than 0.01 µM and the TGI is 0.194 µM.

Another assay relates to HOP-92 NSCLC. Nature of the assay: NCI-60 cell line screen, 48 h.
`CCOC(=O)NC(=O)c1cn(CCCO)c(=O)[nH]c1=O` displayed a TGI of more than 100 µM.

The compound `CCN1c2ccccc2C(C(SC)S(=O)(=O)c2ccc(C)cc2)c2c1[nH]c(=O)n(C)c2=O` (centres undefined) yielded a TGI of more than 100 µM.

Consider `C[C@@H]1CCC2[C@@H](C)[C@@H](OCC(CO[C@H]3OC4O[C@@]5(C)CC[C@H]6[C@H](C)CCC([C@H]3C)[C@@]46OO5)OC(=O)CCC(=O)O)OC3O[C@@]4(C)CC[C@@H]1[C@]32OO4` (some centres undefined), for which the GI50 was 0.097 µM and the TGI is 3.26 µM.
